{"source": "patent EP1530463B1", "about": "“L-ARGININE CONTAINING PHARMACEUTICAL COMPOSITION” (Vasopharm Biotech GmbH, priority 2002, dated 2004)", "origin": "cited, not measured here", "note": "Where two headings read alike, the source gives them in different places.", "data": [{"smiles": "N=C(N)NCCC[C@H](N)C(=O)O", "note": "[L-arginine]", "values": [{"measurement": "pKa", "setting": "guanidino group", "result": 12.48}]}, {"smiles": "O=C1O[C@H]([C@@H](O)CO)C(O)=C1O", "note": "[ascorbic acid]", "values": [{"measurement": "pKa", "setting": "organic acid", "result": 4.17}]}]}
